How the values were obtained:
IDO1 = target: T1, IDO1 (Homo sapiens, UniProt P14902); test: IDO enzymatic assay; format: biochemical; settings: geometric mean; read-out: IDO1 GMean: IC50 (μM) (Biochemical Assay)
T1 construct: His tag (N); made in house; host or cells: E. coli
Procedure, shortened: (§1)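 Kynurenine formed after TCA hydrolysis (30 min, 50 °C) was quantified relative to full-reaction and no-enzyme controls, and IC50s were fitted. TDO reactions used 1 nM enzyme with 350 μM Trp and 0.4 μM methylene blue for 70 min; IDO reactions used 6 nM enzyme, 10 μM Trp, 5 μM methylene blue for 20 min; both at pH 6.5, room temperature.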

TDO = target: T2, TDO (Homo sapiens, UniProt P48775); test: TDO enzymatic assay; settings: geometric mean; read-out: TDO GMean: IC50 (μM) (Biochemical Assay)
T2 construct: His tag (N); made in house; host or cells: E. coli
Procedure, shortened: as §1

[1] = target: T3, IDO1-expressing HEK293 cell clones (Homo sapiens, UniProt P14902); test: Cell based kynurenine assay, IDO1-expressing HEK293 cell clones; settings: HEK293 cells, 24 hours of incubation, geometric mean; read-out: HEK293 IDO1 Kynurenine GMean IC50 (μM) (Cellular Assay)
T3 construct: expressed in transfected cells; host or cells: HEK293
Procedure, shortened: (§2)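 IC50s come from nonlinear regression of % inhibition of kynurenine in culture supernatant after 24 hours of compound exposure. Controls were 0.2% DMSO-treated cells and media alone. Cells were stable human IDO1- or TDO-expressing HEK293 clones (CMV promoter), plated at 2.5×10^4 per well.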

[2] = target: T4, TDO-expressing HEK293 cell clones (Homo sapiens, UniProt P48775); test: Cell based kynurenine assay, TDO-expressing HEK293 cell clones; settings: HEK293 cells, 24 hours of incubation, geometric mean; read-out: HEK293 TDO Kynurenine GMean IC50 (μM) (Cellular Assay)
T4 construct: expressed in transfected cells; host or cells: HEK293
Procedure, shortened: as §2

T3 sequence (P14902 whole entry): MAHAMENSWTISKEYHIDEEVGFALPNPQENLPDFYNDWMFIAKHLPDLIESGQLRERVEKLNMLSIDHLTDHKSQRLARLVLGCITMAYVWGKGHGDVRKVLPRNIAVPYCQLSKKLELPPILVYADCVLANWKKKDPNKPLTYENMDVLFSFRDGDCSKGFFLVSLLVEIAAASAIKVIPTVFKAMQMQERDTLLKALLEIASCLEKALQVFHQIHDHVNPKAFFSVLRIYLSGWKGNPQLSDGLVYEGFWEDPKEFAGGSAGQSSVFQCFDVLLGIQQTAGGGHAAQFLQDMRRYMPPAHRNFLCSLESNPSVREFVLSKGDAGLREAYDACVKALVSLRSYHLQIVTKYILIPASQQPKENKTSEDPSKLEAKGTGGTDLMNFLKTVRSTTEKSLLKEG
T1 sequence (P14902 whole entry): as above
T4 sequence (P48775 whole entry): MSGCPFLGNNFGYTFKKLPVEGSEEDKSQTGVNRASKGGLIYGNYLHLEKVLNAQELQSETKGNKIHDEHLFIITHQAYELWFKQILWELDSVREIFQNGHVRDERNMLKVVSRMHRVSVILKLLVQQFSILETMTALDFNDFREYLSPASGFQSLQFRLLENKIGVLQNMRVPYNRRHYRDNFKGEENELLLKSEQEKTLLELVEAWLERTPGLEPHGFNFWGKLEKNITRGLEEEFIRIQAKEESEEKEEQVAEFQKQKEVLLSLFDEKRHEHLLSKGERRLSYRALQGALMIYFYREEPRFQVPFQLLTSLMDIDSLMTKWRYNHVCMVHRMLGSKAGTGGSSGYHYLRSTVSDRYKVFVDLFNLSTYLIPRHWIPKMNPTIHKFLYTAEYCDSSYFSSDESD
T2 sequence (P48775 whole entry): as above

| SMILES | IC50 (IDO1) | IC50 (TDO) | IC50 [1] | IC50 [2] |
| --- | --- | --- | --- | --- |
| C[C@H](O)C(=O)N1CCC(C(C)(C)[C@H](O)c2cc(Cl)cc3cn[nH]c23)CC1 [Compound P-0124, (S)-1-(4-((S)-1-(5-chloro-1H-indazol-7-yl)-1-hydroxy-2-methylpropan-2-yl)piperidin-1-yl)-2-hydroxypropan-1-one] | 0.0001 to 10 µM | 0.0001 to 10 µM | 0.0001 to 10 µM | 0.0001 to 10 µM |
| C[C@@H](N)C(=O)N1CCC(C(C)(C)[C@H](O)c2cc(Cl)cc3cn[nH]c23)CC1 [Compound P-0125, (R)-2-amino-1-(4-((S)-1-(5-chloro-1H-indazol-7-yl)-1-hydroxy-2-methylpropan-2-yl)piperidin-1-yl)propan-1-one] | 0.0001 to 10 µM | 0.0001 to 10 µM | 0.0001 to 10 µM | 0.0001 to 10 µM |
| C[C@H](N)C(=O)N1CCC(C(C)(C)[C@H](O)c2cc(Cl)cc3cn[nH]c23)CC1 [Compound P-0127, (S)-2-amino-1-(4-((S)-1-(5-chloro-1H-indazol-7-yl)-1-hydroxy-2-methylpropan-2-yl)piperidin-1-yl)propan-1-one] | 0.0001 to 10 µM | 0.0001 to 10 µM | 0.0001 to 10 µM | 0.0001 to 10 µM |
| CN(O)C(=O)N1CCC(C(C)(C)[C@H](O)c2cc(Cl)cc3cn[nH]c23)CC1 [Compound P-0129, (S)-4-(1-(5-chloro-1H-indazol-7-yl)-1-hydroxy-2-methylpropan-2-yl)-N-hydroxy-N-methylpiperidine-1-carboxamide] | 0.0001 to 10 µM | 0.0001 to 10 µM | 0.0001 to 10 µM | 0.0001 to 10 µM |
| CON(C)C(=O)N1CCC(C(C)(C)[C@H](O)c2cc(Cl)cc3cn[nH]c23)CC1 [Compound P-0130, (S)-4-(1-(5-chloro-1H-indazol-7-yl)-1-hydroxy-2-methylpropan-2-yl)-N-methoxy-N-methylpiperidine-1-carboxamide] | 0.0001 to 10 µM | 0.0001 to 10 µM | 0.0001 to 10 µM | 0.0001 to 10 µM |
| C[C@@H](O)C(=O)N1CCC(C(C)(C)[C@H](O)c2cc(Cl)cc3cn[nH]c23)CC1 [Compound P-0131, (R)-1-(4-((S)-1-(5-chloro-1H-indazol-7-yl)-1-hydroxy-2-methylpropan-2-yl)piperidin-1-yl)-2-hydroxypropan-1-one] | 0.0001 to 10 µM | 0.0001 to 10 µM | 0.0001 to 10 µM | 0.0001 to 10 µM |
| CC(C)(O)C(=O)N1CCC(C(C)(C)[C@H](O)c2cc(Cl)cc3cn[nH]c23)CC1 [Compound P-0132, (S)-1-(4-(1-(5-chloro-1H-indazol-7-yl)-1-hydroxy-2-methylpropan-2-yl)piperidin-1-yl)-2-hydroxy-2-methylpropan-1-one] | 0.0001 to 10 µM | 0.0001 to 10 µM | 0.0001 to 10 µM | 0.0001 to 10 µM |
| CC(C)(C1CCN(C(=O)C2(O)CC2)CC1)[C@H](O)c1cc(Cl)cc2cn[nH]c12 [Compound P-0133, (S)-(4-(1-(5-chloro-1H-indazol-7-yl)-1-hydroxy-2-methylpropan-2-yl)piperidin-1-yl)(1-hydroxycyclopropyl)methanone] | 0.0001 to 10 µM | 0.0001 to 10 µM | 0.0001 to 10 µM | 0.0001 to 10 µM |
| CS(=O)(=O)N1CCC2(CC1)CC(O)(c1c(F)c(Cl)cc3cn[nH]c13)C2 [Compound P-0136, 2-(5-chloro-6-fluoro-1H-indazol-7-yl)-7-(methylsulfonyl)-7-azaspiro[3.5]nonan-2-ol] | 0.0001 to 10 µM | 0.0001 to 10 µM | 0.0001 to 10 µM | 0.0001 to 10 µM |
| [2H]C([2H])([2H])C(C1CCN(C(=O)CO)CC1)(C(O)c1cc(Cl)cc2cn[nH]c12)C([2H])([2H])[2H] (stereo not drawn) [Compound P-0143, 1-(4-(2-((5-chloro-1H-indazol-7-yl)(hydroxy)methyl)propan-2-yl-1,1,1,3,3,3-d6)piperidin-1-yl)-2-hydroxyethan-1-one] | 0.0001 to 10 µM | 0.0001 to 10 µM | 0.0001 to 10 µM | 0.0001 to 10 µM |

More lines, now with the values ahead:

| IC50 (IDO1) | IC50 (TDO) | IC50 [1] | IC50 [2] | SMILES |
| --- | --- | --- | --- | --- |
| 0.0001 to 10 µM | 0.0001 to 10 µM | 0.0001 to 10 µM | 0.0001 to 10 µM | CC(C)(C1CCN(C(=O)NC[C@H]2CCCO2)CC1)C(O)c1cc(Cl)cc2[nH]ncc12 (stereo partly drawn) [Compound P-0115, 4-(1-(6-chloro-1H-indazol-4-yl)-1-hydroxy-2-methylpropan-2-yl)-N-(((R)-tetrahydrofuran-2-yl)methyl)piperidine-1-carboxamide] |
| 0.0001 to 10 µM | 0.0001 to 10 µM | 0.0001 to 10 µM | 0.0001 to 10 µM | CC(C)(C1CCN(C(=O)NCc2ccc(C#N)nc2)CC1)C(O)c1cc(Cl)cc2[nH]ncc12 (stereo not drawn) [Compound P-0116, 4-(1-(6-chloro-1H-indazol-4-yl)-1-hydroxy-2-methylpropan-2-yl)-N-((6-cyanopyridin-3-yl)methyl)piperidine-1-carboxamide] |
| 0.0001 to 10 µM | 0.0001 to 10 µM | 0.0001 to 10 µM | 0.0001 to 10 µM | CC(C)(C1CCN(C(=O)NCc2ccc(F)cn2)CC1)C(O)c1cc(Cl)cc2[nH]ncc12 (stereo not drawn) [Compound P-0117, 4-(1-(6-chloro-1H-indazol-4-yl)-1-hydroxy-2-methylpropan-2-yl)-N-((5-fluoropyridin-2-yl)methyl)piperidine-1-carboxamide] |
| 0.0001 to 10 µM | 0.0001 to 10 µM | 0.0001 to 10 µM | 0.0001 to 10 µM | CC(C)(C1CCN(C(=O)NCc2ccc(C#N)cc2)CC1)C(O)c1cc(Cl)cc2[nH]ncc12 (stereo not drawn) [Compound P-0118, 4-(1-(6-chloro-1H-indazol-4-yl)-1-hydroxy-2-methylpropan-2-yl)-N-(4-cyanobenzyl)piperidine-1-carboxamide] |
| 0.0001 to 10 µM | 0.0001 to 10 µM | > 10 µM | 0.0001 to 10 µM | CC(C)(C1CCN(C(=O)NC2(C#N)CC2)CC1)C(O)c1cc(Cl)cc2[nH]ncc12 (stereo not drawn) [Compound P-0119, 4-(1-(6-chloro-1H-indazol-4-yl)-1-hydroxy-2-methylpropan-2-yl)-N-(1-cyanocyclopropyl)piperidine-1-carboxamide] |
| 0.0001 to 10 µM | 0.0001 to 10 µM | 0.0001 to 10 µM | 0.0001 to 10 µM | CC(C)(C1CCN(C(=O)Nc2ccc(C#N)nc2)CC1)[C@H](O)c1cc(Cl)cc2cn[nH]c12 [Compound P-0120, (S)-4-(1-(5-chloro-1H-indazol-7-yl)-1-hydroxy-2-methylpropan-2-yl)-N-(6-cyanopyridin-3-yl)piperidine-1-carboxamide] |
| 0.0001 to 10 µM | 0.0001 to 10 µM | 0.0001 to 10 µM | 0.0001 to 10 µM | CCONC(=O)N1CCC(C(C)(C)[C@H](O)c2cc(Cl)cc3cn[nH]c23)CC1 [Compound P-0121, (S)-4-(1-(5-chloro-1H-indazol-7-yl)-1-hydroxy-2-methylpropan-2-yl)-N-ethoxypiperidine-1-carboxamide] |
| 0.0001 to 10 µM | 0.0001 to 10 µM | 0.0001 to 10 µM | 0.0001 to 10 µM | CC(C)(C1CCN(C(=O)NO)CC1)[C@H](O)c1cc(Cl)cc2cn[nH]c12 [Compound P-0122, (S)-4-(1-(5-chloro-1H-indazol-7-yl)-1-hydroxy-2-methylpropan-2-yl)-N-hydroxypiperidine-1-carboxamide] |
| 0.0001 to 10 µM | 0.0001 to 10 µM | 0.0001 to 10 µM | 0.0001 to 10 µM | CC(C)(C1CCN(C(=O)NOCc2ccccc2)CC1)[C@H](O)c1cc(Cl)cc2cn[nH]c12 [Compound P-0123, (S)-N-(benzyloxy)-4-(1-(5-chloro-1H-indazol-7-yl)-1-hydroxy-2-methylpropan-2-yl)piperidine-1-carboxamide] |
| 0.0001 to 10 µM | 0.0001 to 10 µM | 0.0001 to 10 µM | 0.0001 to 10 µM | CC(C)(C1CCN(C(=O)CN)CC1)[C@H](O)c1cc(Cl)cc2cn[nH]c12 [Compound P-0126, (S)-2-amino-1-(4-(1-(5-chloro-1H-indazol-7-yl)-1-hydroxy-2-methylpropan-2-yl)piperidin-1-yl)ethan-1-one] |
| 0.0001 to 10 µM | 0.0001 to 10 µM | 0.0001 to 10 µM | 0.0001 to 10 µM | CNCC(=O)N1CCC(C(C)(C)[C@H](O)c2cc(Cl)cc3cn[nH]c23)CC1 [Compound P-0128, (S)-1-(4-(1-(5-chloro-1H-indazol-7-yl)-1-hydroxy-2-methylpropan-2-yl)piperidin-1-yl)-2-(methylamino)ethan-1-one] |
| 0.0001 to 10 µM | 0.0001 to 10 µM | 0.0001 to 10 µM | 0.0001 to 10 µM | CC(C)(C1CCN(C(=O)CCO)CC1)[C@H](O)c1cc(Cl)cc2cn[nH]c12 [Compound P-0134, (S)-1-(4-(1-(5-chloro-1H-indazol-7-yl)-1-hydroxy-2-methylpropan-2-yl)piperidin-1-yl)-3-hydroxypropan-1-one] |
| 0.0001 to 10 µM | 0.0001 to 10 µM | > 10 µM | 0.0001 to 10 µM | CC(C)(C)OC(=O)N1CCC(C(C)(C)[C@H](O)c2cc(Cl)cc3[nH]ncc23)CC1 [Compound P-0142, tert-butyl (S)-4-(1-(6-chloro-1H-indazol-4-yl)-1-hydroxy-2-methylpropan-2-yl)piperidine-1-carboxylate] |
| 0.0001 to 10 µM | 0.0001 to 10 µM | > 10 µM | 0.0001 to 10 µM | CC(C)(C)OC(=O)N1CCC(C(C)(C)[C@@H](O)c2cc(Cl)cc3[nH]ncc23)CC1 [Compound P-0144, tert-butyl (R)-4-(1-(6-chloro-1H-indazol-4-yl)-1-hydroxy-2-methylpropan-2-yl)piperidine-1-carboxylate] |
